The values below come from ChEMBL document CHEMBL3608278 (J Med Chem, 2015).

What is called IC50 is the concentration that gives 50% inhibition. A higher IC50 goes with weaker potency in that assay.

Assay [1] concerns the target T1, Potassium voltage-gated channel subfamily A member 3 (Homo sapiens, UniProt P22001). As to the kind of experiment: cell-based. Further details: species or system Blood.
Assay [2] addresses T1, Potassium voltage-gated channel subfamily A member 3. Also on record: species or system Blood.

T1 sequence (P22001 whole entry): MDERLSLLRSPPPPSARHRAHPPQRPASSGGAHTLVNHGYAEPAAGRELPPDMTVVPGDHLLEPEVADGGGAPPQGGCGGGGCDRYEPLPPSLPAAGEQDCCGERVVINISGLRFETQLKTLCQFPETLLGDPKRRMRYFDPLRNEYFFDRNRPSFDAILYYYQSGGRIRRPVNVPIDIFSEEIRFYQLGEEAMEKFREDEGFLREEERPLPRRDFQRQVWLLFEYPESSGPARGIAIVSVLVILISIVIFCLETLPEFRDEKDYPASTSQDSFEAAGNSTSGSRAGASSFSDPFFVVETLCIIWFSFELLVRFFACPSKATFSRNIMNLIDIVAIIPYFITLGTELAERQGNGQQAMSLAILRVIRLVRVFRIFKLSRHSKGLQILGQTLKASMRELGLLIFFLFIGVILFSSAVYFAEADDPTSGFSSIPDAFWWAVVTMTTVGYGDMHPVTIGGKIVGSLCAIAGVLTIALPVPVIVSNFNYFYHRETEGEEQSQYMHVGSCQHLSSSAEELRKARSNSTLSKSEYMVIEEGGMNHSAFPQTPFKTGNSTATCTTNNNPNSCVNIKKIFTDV

As for `CC[C@H](C)[C@@H]1NC(=O)[C@@H](NC(=O)[C@H](CO)NC(=O)[C@@H](N)CCCNC(=N)N)CSSC[C@@H](C(=O)O)NC(=O)[C@H]([C@@H](C)O)NC(=O)CNC(=O)[C@@H]2CSSC[C@@H]3NC(=O)[C@H](CCC(N)=O)NC(=O)[C@H](Cc4ccccc4)NC(=O)[C@H](C)NC(=O)[C@H]([C@@H](C)O)NC(=O)[C@H](CSSC[C@H](NC(=O)[C@H](Cc4ccccc4)NC(=O)[C@H](CO)NC(=O)[C@H](CC(C)C)NC(=O)[C@H](CCCNC(=N)N)NC(=O)[C@H](Cc4ccc(O)cc4)NC(=O)[C@H](CCCCN)NC(=O)[C@H](CCSC)NC(=O)[C@H](CO)NC(=O)[C@H](Cc4cnc[nH]4)NC(=O)[C@H](CCCCN)NC3=O)C(=O)N[C@@H](CCCNC(=N)N)C(=O)N[C@@H](CCCCN)C(=O)N[C@@H]([C@@H](C)O)C(=O)N2)NC(=O)[C@H](CCCNC(=N)N)NC(=O)[C@H](CO)NC(=O)[C@H](CCCCN)NC(=O)[C@@H]2CCCN2C(=O)[C@H](CCCNC(=N)N)NC(=O)[C@H]([C@@H](C)O)NC(=O)[C@H](CC(=O)O)NC1=O`, the IC50 in assay [1] is 6.56 nM; in assay [2], 10.1 nM.

`CC[C@H](C)[C@@H]1NC(=O)[C@H]([C@@H](C)O)NC(=O)[C@H](CC(=O)O)NC(=O)[C@H](CCCNC(=N)N)NC(=O)[C@@H](NC(=O)[C@H](CO)NC(=O)[C@@H](N)CCCNC(=N)N)CSSC[C@@H](C(=O)O)NC(=O)[C@H]([C@@H](C)O)NC(=O)CNC(=O)[C@@H]2CSSC[C@@H]3NC(=O)[C@H](CCC(N)=O)NC(=O)[C@H](Cc4ccccc4)NC(=O)[C@H](C)NC(=O)[C@H]([C@@H](C)O)NC(=O)[C@H](CSSC[C@H](NC(=O)[C@H](Cc4ccccc4)NC(=O)[C@H](CO)NC(=O)[C@H](CC(C)C)NC(=O)[C@H](CCCNC(=N)N)NC(=O)[C@H](Cc4ccc(O)cc4)NC(=O)[C@H](CCCCN)NC(=O)[C@H](CCSC)NC(=O)[C@H](CO)NC(=O)[C@H](Cc4cnc[nH]4)NC(=O)[C@H](CCCCN)NC3=O)C(=O)N[C@@H](CCCNC(=N)N)C(=O)N[C@@H](CCCCN)C(=O)N[C@@H]([C@@H](C)O)C(=O)N2)NC(=O)[C@H](CCCNC(=N)N)NC(=O)[C@H](CO)NC(=O)[C@H](CCCCN)NC(=O)[C@@H]2CCCN2C1=O`: the 50% inhibitory concentration (IC50) worked out at 0.098 nM in assay [1] and 0.123 nM in assay [2].

With `CC[C@H](C)[C@@H]1NC(=O)[C@@H](NC(=O)[C@H](CO)NC(=O)[C@@H](N)CCCNC(=N)N)CSSC[C@@H](C(=O)O)NC(=O)[C@H]([C@@H](C)O)NC(=O)CNC(=O)[C@@H]2CSSC[C@@H]3NC(=O)[C@H](CCC(N)=O)NC(=O)[C@H](Cc4ccccc4)NC(=O)[C@H](C)NC(=O)[C@H]([C@@H](C)O)NC(=O)[C@H](CSSC[C@H](NC(=O)[C@H](Cc4ccccc4)NC(=O)[C@H](CO)NC(=O)[C@H](CC(C)C)NC(=O)[C@H](CCCNC(=N)N)NC(=O)[C@H](Cc4ccc(O)cc4)NC(=O)[C@H](CCCCN)NC(=O)[C@H](CCSC)NC(=O)[C@H](CO)NC(=O)[C@H](Cc4c[nH]cn4)NC(=O)[C@H](CCCCN)NC3=O)C(=O)N[C@@H](CCCNC(=N)N)C(=O)N[C@@H](CCCCN)C(=O)N[C@@H]([C@@H](C)O)C(=O)N2)NC(=O)[C@H](CCCNC(=N)N)NC(=O)[C@H](CO)NC(=O)[C@H](CCCCN)NC(=O)[C@@H]2CCCN2C(=O)[C@H]([C@@H](C)CC)NC(=O)[C@H](CCCNC(=N)N)NC(=O)[C@H](CC(=O)O)NC1=O`, the values for the concentration for half-maximal inhibition (IC50) in assay [1] and in assay [2] were 0.215 nM and 0.304 nM, respectively.

As to `CC[C@H](C)[C@@H]1NC(=O)[C@@H](NC(=O)[C@H](CO)NC(=O)[C@@H](N)CCCNC(=N)N)CSSC[C@@H](C(=O)O)NC(=O)[C@H]([C@@H](C)O)NC(=O)CNC(=O)[C@@H]2CSSC[C@@H]3NC(=O)[C@H](CCC(N)=O)NC(=O)[C@H](Cc4ccccc4)NC(=O)[C@H](C)NC(=O)[C@H]([C@@H](C)O)NC(=O)[C@H](CSSC[C@H](NC(=O)[C@H](Cc4ccccc4)NC(=O)[C@H](CO)NC(=O)[C@H](CC(C)C)NC(=O)[C@H](CCCNC(=N)N)NC(=O)[C@H](Cc4ccc(O)cc4)NC(=O)[C@H](CCCCN)NC(=O)[C@H](CCSC)NC(=O)[C@H](CO)NC(=O)[C@H](Cc4cnc[nH]4)NC(=O)[C@H](CCCCN)NC3=O)C(=O)N[C@@H](CCCNC(=N)N)C(=O)N[C@@H](CCCCN)C(=O)N[C@@H]([C@@H](C)O)C(=O)N2)NC(=O)[C@H](CCCNC(=N)N)NC(=O)[C@H](CO)NC(=O)[C@H](CCCNC(=N)N)NC(=O)[C@@H]2CCCN2C(=O)[C@H]([C@@H](C)CC)NC(=O)[C@H]([C@@H](C)O)NC(=O)[C@H](CC(=O)O)NC1=O`, the values for the IC50 in assay [1] and in assay [2] were 0.076 nM and 0.083 nM, respectively.

Take `CC[C@H](C)[C@@H]1NC(=O)[C@@H](NC(=O)[C@H](CO)NC(=O)[C@@H](N)CCCNC(=N)N)CSSC[C@@H](C(=O)O)NC(=O)[C@H]([C@@H](C)O)NC(=O)CNC(=O)[C@@H]2CSSC[C@@H]3NC(=O)[C@H](CCC(N)=O)NC(=O)[C@H](Cc4ccccc4)NC(=O)[C@H](C)NC(=O)[C@H]([C@@H](C)O)NC(=O)[C@H](CSSC[C@H](NC(=O)[C@H](Cc4ccccc4)NC(=O)[C@H](CO)NC(=O)[C@H](CCCNC(=N)N)NC(=O)[C@H](CCCNC(=N)N)NC(=O)[C@H](Cc4ccc(O)cc4)NC(=O)[C@H](CCCCN)NC(=O)[C@H](CCSC)NC(=O)[C@H](CO)NC(=O)[C@H](Cc4cnc[nH]4)NC(=O)[C@H](CCCCN)NC3=O)C(=O)N[C@@H](CCCNC(=N)N)C(=O)N[C@@H](CCCCN)C(=O)N[C@@H]([C@@H](C)O)C(=O)N2)NC(=O)[C@H](CCCNC(=N)N)NC(=O)[C@H](CO)NC(=O)[C@H](CCCCN)NC(=O)[C@@H]2CCCN2C(=O)[C@H]([C@@H](C)CC)NC(=O)[C@H]([C@@H](C)O)NC(=O)[C@H](CC(=O)O)NC1=O`: the IC50 in assay [1] came to 0.137 nM; in assay [2], 0.194 nM.

As to `CC[C@H](C)[C@@H]1NC(=O)[C@@H](NC(=O)[C@H](CO)NC(=O)[C@@H](N)CCCNC(=N)N)CSSC[C@@H](C(=O)O)NC(=O)[C@H]([C@@H](C)O)NC(=O)CNC(=O)[C@@H]2CSSC[C@@H]3NC(=O)[C@H](CCC(N)=O)NC(=O)[C@H](Cc4ccccc4)NC(=O)[C@H](C)NC(=O)[C@H]([C@@H](C)O)NC(=O)[C@H](CSSC[C@H](NC(=O)[C@H](Cc4ccccc4)NC(=O)[C@H](CCCNC(=N)N)NC(=O)[C@H](CC(C)C)NC(=O)[C@H](CCCNC(=N)N)NC(=O)[C@H](Cc4ccc(O)cc4)NC(=O)[C@H](CCCCN)NC(=O)[C@H](CCSC)NC(=O)[C@H](CO)NC(=O)[C@H](Cc4cnc[nH]4)NC(=O)[C@H](CCCCN)NC3=O)C(=O)N[C@@H](CCCNC(=N)N)C(=O)N[C@@H](CCCCN)C(=O)N[C@@H]([C@@H](C)O)C(=O)N2)NC(=O)[C@H](CCCNC(=N)N)NC(=O)[C@H](CO)NC(=O)[C@H](CCCCN)NC(=O)[C@@H]2CCCN2C(=O)[C@H]([C@@H](C)CC)NC(=O)[C@H]([C@@H](C)O)NC(=O)[C@H](CC(=O)O)NC1=O`, the figures for the IC50 in assay [1] and in assay [2] were 0.158 nM and 0.368 nM, respectively.
